Laboratory results taken from US20140274881A1, “BIODEGRADABLE THERAPEUTIC NANOPARTICLES CONTAINING AN ANTIMICROBIAL AGENT” (CAROLINAS HEALTHCARE SYSTEM, priority 2008, published 2014).

Assays:
[1] = In vitro drug release by dialysis method under sink conditions; assay type: physicochemical; settings: nafcillin-PBS solution without polymer nanoparticles in dialysis bag, 37° C.
Source text: A dialysis method was used in the measurement of in vitro drug release. Drug release studies were done under sink conditions; the volume of the buffer was kept large (outer sink) compared to the volume of drug-loaded nanoparticles suspension in the dialysis bag. The (theoretical) situation of infinite dilution is known as a perfect sink; however, even though perfect sink conditions are never attainable in practice, they are the only situation in which a true release profile can be measured. For a given matrix volume, an increase in liquid volume or volume ratio will promote drug release due to the lower drug concentrations in the medium. The system developed was continuously agitated, resulting in the faster diffusion of drug through the dialysis membrane to the outer sink. FIG. 9A is a plot of cumulative drug release (%) versus time in hours, for release of nafcillin from nafcillin-PBS solution loaded in a dialysis bag with a molecular weight cut-off of 6 kDa at 37° C. FIG. 9B is a plot of cumulative drug release (%) versus time in hours for release of nafcillin from nafcillin-PBS solution loaded in a dialysis bag with a molecular weight cut-off of 12-14 kDa at 37° C. The release of nafcillin from nafcillin-PBS solution without polymer nanoparticles was rapid, since 97% of the drug was released within the first nine (9) hours. […]

[2] = tested on: intracellular S. aureus; experiment: Viability of intracellular S. aureus in infected osteoblasts treated with nanoparticles; assay type: cell-based, Staphylococcus aureus; settings: nafcillin alone, no nanoparticles
Procedure: The viability of intracellular S. aureus following treatment with nanoparticles was determined. S. aureus was allowed to infect cultured primary mouse osteoblasts as described herein, followed by removal and killing of all remaining extracellular bacteria in culture. […] None of the nanoparticle preparations had any effect on osteoblast viability. All loaded formulations of particles caused a significant decrease in the viability of intracellular S. aureus inside infected osteoblasts at both 24 and 48 hours.
FIG. 11 is a bar graph showing viability of intracellular S. aureus in osteoblasts treated with nanoparticles or nanoparticles loaded with nafcillin. Primary mouse osteoblasts were infected intracellularly with S. aureus and were subsequently treated with unloaded nanoparticles (G1 and G2) or nanoparticles loaded with nafcillin (G1.1, 1.2, 2.1 and 2.2) for 1 (0 hour), 24 and 48 hours. Osteoblasts were subsequently lysed following these time intervals with a solution containing 0.1% triton X-100, and serial dilutions of the lysates were plated on tryptic soy agar (TSA). Following an overnight incubation at 37° C., numbers of viable bacteria were enumerated, *, P<0.05 versus S. aureus-treated osteoblasts at the same time point. […]
Following resuspension in OBGM, bacterial cell density is determined via spectrophotometric analysis. […]

CCOc1ccc2ccccc2c1C(=O)N[C@@H]1C(=O)N2[C@@H]1SC(C)(C)[C@@H]2C(=O)O [nafcillin, Nafcillin]
cumulative drug release within the first nine (9) hours [1]: 97% | viability of intracellular S. aureus, compared with untreated infected osteoblasts [2]: indistinguishable from untreated S. aureus-infected osteoblasts
